{"source": "paper PMC8445847", "about": "(iScience, 2021)", "key": {"[1]": {"settings": "relapsed-refractory MCL; ref Byrd et al., 2013; Sarkozy and Ribrag, 2020; cited from earlier work"}, "[2]": {"tested_on": "pPLCγ2(Y759) in JeKo-1 cells", "test": "Western blot of IgM-stimulated cells", "assay_type": "cell-based, human", "settings": "IgM-stimulated JeKo-1 cells, 1 hr"}, "Mino cells [3]": {"tested_on": "Mino cells", "test": "Alamar Blue cell viability assay", "assay_type": "cell-based, human", "settings": "48 h, read-out: antiproliferative IC50 Mino"}, "JeKo-1 cells [4]": {"tested_on": "JeKo-1 cells", "test": "Annexin V/propidium iodide apoptosis assay", "assay_type": "cell-based, human", "settings": "up to 5 μM, 24 h, Annexin V/PI"}, "Z-138 cells": {"tested_on": "Z-138 cells", "test": "Annexin V/propidium iodide apoptosis assay", "assay_type": "cell-based, human", "settings": "up to 5 μM, 24 h, Annexin V/PI"}, "[5]": {"tested_on": "Ibrutinib-resistant Granta cells", "test": "Alamar Blue cell viability assay", "assay_type": "cell-based", "settings": "Homo sapiens, 48 h, read-out: antiproliferative IC50 Granta"}, "JeKo-1 and Mino cells": {"tested_on": "JeKo-1 and Mino cells", "test": "apoptosis after drug washout", "assay_type": "cell-based, human", "settings": "5 μM, treated 4 or 8 h, analyzed 16 or 20 h post washout"}, "Mino cells [6]": {"tested_on": "Mino cells", "test": "Annexin V/propidium iodide apoptosis assay", "assay_type": "cell-based, human", "settings": "up to 5 μM, 24 h, Annexin V/PI"}, "JeKo-1 cells [7]": {"tested_on": "JeKo-1 cells", "test": "Alamar Blue cell viability assay", "assay_type": "cell-based, human", "settings": "read-out: antiproliferative IC50 JeKo-1"}, "[8]": {"tested_on": "BRD4 occupancy at the cMYC promoter in JeKo-1 cells", "test": "BRD4 ChIP assay at the cMYC promoter", "assay_type": "cell-based, human", "settings": "1 μM, 24 h"}, "BTK": {"molecular_target": "BTK (Homo sapiens, UniProt Q06187)", "sequence (Q06187 whole entry)": "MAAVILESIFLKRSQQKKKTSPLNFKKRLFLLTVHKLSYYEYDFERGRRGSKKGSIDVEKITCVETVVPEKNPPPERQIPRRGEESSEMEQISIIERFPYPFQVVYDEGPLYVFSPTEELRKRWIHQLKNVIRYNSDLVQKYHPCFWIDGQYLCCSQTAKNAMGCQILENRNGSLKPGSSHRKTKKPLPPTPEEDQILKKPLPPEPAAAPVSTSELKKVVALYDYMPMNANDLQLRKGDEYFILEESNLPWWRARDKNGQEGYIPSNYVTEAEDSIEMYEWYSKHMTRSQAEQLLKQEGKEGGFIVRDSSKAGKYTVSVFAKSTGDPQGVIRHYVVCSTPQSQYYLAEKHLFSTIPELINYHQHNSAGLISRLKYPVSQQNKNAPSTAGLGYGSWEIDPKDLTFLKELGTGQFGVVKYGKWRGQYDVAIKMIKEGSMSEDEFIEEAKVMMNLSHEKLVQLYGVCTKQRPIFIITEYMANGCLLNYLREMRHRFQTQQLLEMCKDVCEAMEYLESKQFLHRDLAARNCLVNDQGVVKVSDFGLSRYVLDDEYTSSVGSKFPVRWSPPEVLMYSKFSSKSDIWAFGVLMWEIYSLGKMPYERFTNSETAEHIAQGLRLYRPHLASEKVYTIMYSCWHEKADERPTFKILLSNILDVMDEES", "test": "in vitro kinase assay", "assay_type": "biochemical", "settings": "read-out: IC50 BTK"}, "JeKo-1 BTK-C481S cells": {"tested_on": "JeKo-1 BTK-C481S cells", "test": "cell viability assay, engineered BTK cell lines", "assay_type": "cell-based, human", "settings": "read-out: IC50 JeKo-1 BTK-C481S; 48 h, Ibrutinib-resistant BTK-C481S"}, "Mino BTK-WT cells": {"tested_on": "Mino BTK-WT cells", "test": "cell viability assay, engineered BTK cell lines", "assay_type": "cell-based, human", "settings": "read-out: IC50 Mino BTK-WT; 48 h"}, "Mino BTK-C481S cells": {"tested_on": "Mino BTK-C481S cells", "test": "cell viability assay, engineered BTK cell lines", "assay_type": "cell-based, human", "settings": "read-out: IC50 Mino BTK-C481S; 48 h, Ibrutinib-resistant BTK-C481S"}, "PI3Kδ": {"molecular_target": "PI3Kδ (Homo sapiens, UniProt O00329)", "sequence (O00329 whole entry)": "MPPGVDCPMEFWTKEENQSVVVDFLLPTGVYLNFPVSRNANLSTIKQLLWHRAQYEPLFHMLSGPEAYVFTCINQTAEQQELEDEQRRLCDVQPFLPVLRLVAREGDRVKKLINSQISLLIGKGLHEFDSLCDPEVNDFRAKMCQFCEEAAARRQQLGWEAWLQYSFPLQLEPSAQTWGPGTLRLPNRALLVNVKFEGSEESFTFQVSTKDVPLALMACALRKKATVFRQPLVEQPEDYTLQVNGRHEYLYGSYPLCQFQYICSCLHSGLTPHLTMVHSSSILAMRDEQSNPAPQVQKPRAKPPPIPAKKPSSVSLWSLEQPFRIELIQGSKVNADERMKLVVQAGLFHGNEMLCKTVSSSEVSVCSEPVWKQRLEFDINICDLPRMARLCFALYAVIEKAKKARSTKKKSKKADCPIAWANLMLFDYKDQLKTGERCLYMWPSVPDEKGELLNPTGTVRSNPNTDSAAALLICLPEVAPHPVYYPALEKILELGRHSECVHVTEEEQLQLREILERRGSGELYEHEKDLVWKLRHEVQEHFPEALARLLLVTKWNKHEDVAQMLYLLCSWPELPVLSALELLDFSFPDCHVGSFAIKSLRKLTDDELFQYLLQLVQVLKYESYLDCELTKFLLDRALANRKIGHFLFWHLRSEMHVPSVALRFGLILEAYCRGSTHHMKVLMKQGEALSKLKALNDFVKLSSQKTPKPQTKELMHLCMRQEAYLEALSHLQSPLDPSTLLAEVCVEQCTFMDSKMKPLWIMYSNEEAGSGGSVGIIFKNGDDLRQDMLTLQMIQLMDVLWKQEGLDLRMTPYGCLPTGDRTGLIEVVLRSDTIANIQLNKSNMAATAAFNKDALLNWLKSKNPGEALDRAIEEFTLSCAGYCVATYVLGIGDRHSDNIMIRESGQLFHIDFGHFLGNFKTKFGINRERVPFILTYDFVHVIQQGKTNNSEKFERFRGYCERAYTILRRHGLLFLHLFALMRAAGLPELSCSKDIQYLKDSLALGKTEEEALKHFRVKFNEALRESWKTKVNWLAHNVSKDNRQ", "sequence (P27986 whole entry partner)": "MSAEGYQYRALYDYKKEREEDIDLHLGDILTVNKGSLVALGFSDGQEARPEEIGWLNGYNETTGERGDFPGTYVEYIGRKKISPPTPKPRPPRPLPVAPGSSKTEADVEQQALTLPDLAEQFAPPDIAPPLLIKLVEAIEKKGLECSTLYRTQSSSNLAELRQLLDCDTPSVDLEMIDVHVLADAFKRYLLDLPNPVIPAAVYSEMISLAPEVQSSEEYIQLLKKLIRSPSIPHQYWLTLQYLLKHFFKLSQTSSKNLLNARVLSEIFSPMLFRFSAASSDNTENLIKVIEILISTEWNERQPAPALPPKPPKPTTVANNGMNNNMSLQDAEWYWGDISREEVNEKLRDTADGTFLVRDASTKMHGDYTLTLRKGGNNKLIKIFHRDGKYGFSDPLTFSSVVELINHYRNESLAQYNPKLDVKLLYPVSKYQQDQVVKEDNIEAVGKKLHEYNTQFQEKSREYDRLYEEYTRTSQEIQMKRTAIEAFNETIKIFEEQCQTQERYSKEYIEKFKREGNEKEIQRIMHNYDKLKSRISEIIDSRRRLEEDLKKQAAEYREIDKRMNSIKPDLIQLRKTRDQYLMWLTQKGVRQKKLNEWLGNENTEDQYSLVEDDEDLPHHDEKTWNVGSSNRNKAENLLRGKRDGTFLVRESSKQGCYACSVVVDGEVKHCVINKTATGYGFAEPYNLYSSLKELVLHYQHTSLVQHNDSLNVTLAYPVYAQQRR", "test": "in vitro kinase assay", "assay_type": "biochemical", "settings": "read-out: IC50 PI3Kδ"}, "[9]": {"tested_on": "JeKo-1 chronic Ibrutinib-resistant cell line", "test": "Cell titer Glow viability assay", "assay_type": "cell-based, human"}, "BRD4 BD2 [10]": {"molecular_target": "BRD4 BD2 (Homo sapiens, UniProt O60885)", "test": "Alpha Screen assay against tetra-acetylated histone H4 peptide", "assay_type": "binding", "settings": "read-out: IC50 BRD4 BD2"}, "BRD4 BD2 [11]": {"tested_on": "BRD4 BD2", "test": "NMR titration", "assay_type": "binding", "settings": "15N-labeled protein, PBS pH 6.8"}, "BRD4 BD1 [12]": {"tested_on": "BRD4 BD1", "test": "NMR titration", "assay_type": "binding", "settings": "15N-labeled protein, PBS pH 6.8"}, "BRD4 BD1 [13]": {"molecular_target": "BRD4 BD1 (Homo sapiens, UniProt O60885)", "test": "Alpha Screen assay against tetra-acetylated histone H4 peptide", "assay_type": "binding", "settings": "read-out: IC50 BRD4 BD1"}, "[14]": {"tested_on": "pBTK(Y223) and pAKT(S473) in Mino cells", "test": "Western blot of IgM-stimulated cells", "assay_type": "cell-based, human", "settings": "1 hr"}, "PI3Kα": {"molecular_target": "PI3Kα (Homo sapiens, UniProt P42336)", "sequence (P42336 whole entry)": "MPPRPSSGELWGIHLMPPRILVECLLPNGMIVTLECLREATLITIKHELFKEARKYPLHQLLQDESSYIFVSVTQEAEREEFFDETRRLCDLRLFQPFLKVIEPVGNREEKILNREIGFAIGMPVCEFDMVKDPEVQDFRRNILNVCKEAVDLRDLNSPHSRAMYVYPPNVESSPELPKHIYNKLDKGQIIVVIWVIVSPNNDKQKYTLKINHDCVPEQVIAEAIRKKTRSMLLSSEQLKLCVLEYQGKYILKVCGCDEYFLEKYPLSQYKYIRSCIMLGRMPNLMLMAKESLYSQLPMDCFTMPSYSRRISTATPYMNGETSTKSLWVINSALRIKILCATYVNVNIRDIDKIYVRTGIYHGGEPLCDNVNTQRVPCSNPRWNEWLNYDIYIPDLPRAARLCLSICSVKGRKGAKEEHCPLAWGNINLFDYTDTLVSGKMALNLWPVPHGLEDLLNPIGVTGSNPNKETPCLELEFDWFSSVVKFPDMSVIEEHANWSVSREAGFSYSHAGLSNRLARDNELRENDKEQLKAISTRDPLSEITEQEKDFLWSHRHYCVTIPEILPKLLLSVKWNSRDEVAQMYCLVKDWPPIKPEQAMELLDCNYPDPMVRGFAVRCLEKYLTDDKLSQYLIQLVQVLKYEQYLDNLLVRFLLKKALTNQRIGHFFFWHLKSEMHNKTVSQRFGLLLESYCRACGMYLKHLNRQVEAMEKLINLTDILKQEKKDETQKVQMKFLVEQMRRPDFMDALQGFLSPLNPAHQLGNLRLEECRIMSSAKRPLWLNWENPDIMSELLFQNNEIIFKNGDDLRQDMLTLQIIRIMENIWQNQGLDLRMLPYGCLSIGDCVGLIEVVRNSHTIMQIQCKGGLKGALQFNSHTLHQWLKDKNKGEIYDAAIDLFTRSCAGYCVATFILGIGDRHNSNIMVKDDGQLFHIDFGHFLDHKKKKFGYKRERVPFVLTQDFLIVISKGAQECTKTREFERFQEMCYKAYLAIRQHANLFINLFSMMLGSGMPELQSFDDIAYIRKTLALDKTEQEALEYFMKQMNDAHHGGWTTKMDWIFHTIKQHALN", "sequence (P27986 whole entry partner)": "as the sequence (P27986 whole entry partner) above", "test": "in vitro kinase assay", "assay_type": "biochemical", "settings": "read-out: IC50 PI3Kα"}, "JeKo-1 MCL tumors": {"tested_on": "JeKo-1 MCL tumors", "test": "JeKo-1 MCL xenograft tumor model", "assay_type": "in vivo", "settings": "60 mg/kg daily by oral gavage; SRX3262 vs Ibrutinib-treated mice"}, "JeKo-1 BTK-WT cells": {"tested_on": "JeKo-1 BTK-WT cells", "test": "cell viability assay, engineered BTK cell lines", "assay_type": "cell-based, human"}, "[15]": {"tested_on": "cMYC, BCL2 and HEXIM1 expression in JeKo-1 and Mino cells", "test": "qRT-PCR of BRD4 target genes", "assay_type": "cell-based, human", "settings": "1 and 2.5 μM, 24 hr"}, "[16]": {"tested_on": "cMYC protein in Jeko-1 and Mino cells", "test": "Western blot of cMYC", "assay_type": "cell-based, human"}, "JeKo-1 cells [17]": {"tested_on": "JeKo-1 cells", "test": "cell cycle analysis", "assay_type": "cell-based, human", "settings": "JeKo-1, 1–5 μM, 24 h"}, "[18]": {"tested_on": "BTK and AKT phosphorylation in Mino cells", "test": "inhibitor washout assay", "settings": "1 h treatment, 24 h post washout"}, "[19]": {"tested_on": "JeKo-1 BTK-WT, JeKo-1 BTK-C481S and Mino BTK-C481S cells", "settings": "up to 5 μM"}}, "note": "Where two headings read alike, the source gives them in different places.", "data": [{"smiles": "C=CC(=O)N1CCC[C@@H](n2nc(-c3ccc(Oc4ccccc4)cc3)c3c(N)ncnc32)C1", "note": "[Ibrutinib, reference compound]", "values": [{"measurement": "complete response", "setting": "[1]", "value": 23, "unit": "%"}, {"measurement": "objective response rate", "setting": "[1]", "value": 68, "unit": "%"}, {"measurement": "phosphorylation of PLCγ2", "setting": "[2]", "value": "inhibited phosphorylation of PLCγ2"}, {"measurement": "IC50", "setting": "Mino cells [3]; Homo sapiens, MINO", "value": 6500, "unit": "nM"}, {"measurement": "apoptosis JeKo-1", "setting": "JeKo-1 cells [4]", "value": "no effect"}, {"measurement": "apoptosis Z-138", "setting": "Z-138 cells", "value": "mild effect"}, {"measurement": "IC50", "setting": "[5]", "value": 20000, "unit": "nM"}, {"measurement": "cells undergoing apoptosis after drug washout", "setting": "JeKo-1 and Mino cells", "value": "20–30%"}, {"measurement": "apoptosis Mino", "setting": "Mino cells [6]", "value": "mild effect"}, {"measurement": "IC50", "setting": "JeKo-1 cells [7]; Homo sapiens, JeKo-1, 48 h", "value": 8000, "unit": "nM"}]}, {"smiles": "Cc1sc2c(c1C)C(c1ccc(Cl)cc1)=N[C@@H](CC(=O)OC(C)(C)C)c1nnc(C)n1-2", "note": "[JQ1, reference compound]", "values": [{"measurement": "BRD4 localization at the cMYC promoter site", "setting": "[8]", "value": "decreased"}]}, {"smiles": "C=CC(=O)N1CCOc2ccc(-c3csc4c(=O)cc(N5CCOCC5)oc34)cc21", "note": "[SRX3262]", "values": [{"measurement": "phosphorylation of PLCγ2", "setting": "[2]", "value": "inhibited phosphorylation of PLCγ2"}, {"measurement": "IC50", "setting": "BTK", "value": 35, "unit": "nM"}, {"measurement": "IC50", "setting": "Mino cells [3]; Alamar Blue", "value": 130, "unit": "nM"}, {"measurement": "IC50", "setting": "JeKo-1 BTK-C481S cells", "value": 730, "unit": "nM"}, {"measurement": "IC50", "setting": "Mino BTK-WT cells", "value": 690, "unit": "nM"}, {"measurement": "apoptosis JeKo-1", "setting": "JeKo-1 cells [4]", "value": "dramatically increased apoptosis"}, {"measurement": "IC50", "setting": "Mino BTK-C481S cells", "value": 380, "unit": "nM"}, {"measurement": "apoptosis Z-138", "setting": "Z-138 cells", "value": "dramatically increased apoptosis"}, {"measurement": "IC50", "setting": "PI3Kδ", "value": 16, "unit": "nM"}, {"measurement": "decrease in cell viability compared to Ibrutinib", "setting": "[9]", "value": "3–6 times"}, {"measurement": "IC50", "setting": "BRD4 BD2 [10]", "value": 348, "unit": "nM"}, {"measurement": "binding to BRD4 BD2 (chemical shift perturbations)", "setting": "BRD4 BD2 [11]", "value": "binds to both BD1 and BD2"}, {"measurement": "binding to BRD4 BD1 (chemical shift perturbations)", "setting": "BRD4 BD1 [12]", "value": "binds to both BD1 and BD2"}, {"measurement": "IC50", "setting": "BRD4 BD1 [13]", "value": 228, "unit": "nM"}, {"measurement": "phosphorylation of S473 in AKT", "setting": "[14]", "value": "inhibited phosphorylation"}, {"measurement": "phosphorylation of Y223 in BTK", "setting": "[14]", "value": "inhibited phosphorylation"}, {"measurement": "cells undergoing apoptosis after drug washout", "setting": "JeKo-1 and Mino cells", "value": "40–70%"}, {"measurement": "IC50", "setting": "PI3Kα", "value": 64, "unit": "nM"}, {"measurement": "body weight", "setting": "JeKo-1 MCL tumors", "value": "did not observe any notable changes in body weight"}, {"measurement": "times more effective than Ibrutinib", "setting": "JeKo-1 BTK-WT cells; both JeKo-1 BTK-WT and JeKo-1 BTK-C481S cells", "value": "20–27 times"}, {"measurement": "IC50", "setting": "JeKo-1 BTK-WT cells; read-out: IC50 JeKo-1 BTK-WT, 48 h", "value": 550, "unit": "nM"}, {"measurement": "apoptosis Mino", "setting": "Mino cells [6]", "value": "dramatically increased apoptosis"}, {"measurement": "IC50", "setting": "JeKo-1 cells [7]; Alamar Blue, 48 h", "value": 620, "unit": "nM"}, {"measurement": "expression of HEXIM1", "setting": "[15]", "value": "increase of expression of HEXIM1"}, {"measurement": "expression of cMYC and BCL2", "setting": "[15]", "value": "decrease of expression"}, {"measurement": "cMYC protein level", "setting": "[16]", "value": "decreased the cMYC protein level"}, {"measurement": "cell cycle arrest", "setting": "JeKo-1 cells [17]", "value": "induced G2 phase cell cycle arrest"}, {"measurement": "AKT phosphorylation after inhibitor washout", "setting": "[18]", "value": "sustained inhibition of AKT phosphorylation"}, {"measurement": "apoptosis in BTK-WT and Ibrutinib-resistant BTK-C481S cells", "setting": "[19]", "value": "increase in apoptotic cell death"}, {"measurement": "BRD4 localization at the cMYC promoter site", "setting": "[8]", "value": "decreased"}]}]}
